IC50 and EC50 data for eight molecules are collected here from patent US7491794B2, “Macrocyclic compounds as inhibitors of viral replication” (Intermune, Inc., priority 2003, dated 2009).

The target of assay [1] is T1, NS3-NS4 protease (Hepatitis C virus genotype 1a, UniProt P27958).
T1 construct: Recombinant E. coli or Baculovirus full-length NS3 was diluted to 3.33 μM with assay buffer; made in house; host or cells: E. coli or baculovirus (BV) system
Put plainly: NS3-NS4 protease assay / NS3 inhibition assay, Section C. In kind it is biochemical. As to the method: NS3 complex formation with NS4A-2.
Recombinant E. coli or Baculovirus full-length NS3 was diluted to 3.33 μM with assay buffer and transfered material to an eppendorf tube and place in water bath in 4° C. refrigerator. The appropriate amount of NS4A-2 to 8.3 mM in assay buffer was added to equal the volume of NS3 in step 2.1.1 (conversion factor −3.8 mg/272 μL assay buffer). The material was transferred to an eppendorf tube and place in water bath in 4° C. refrigerator.
After equilibration to 4° C., equal volumes of NS3 and NS4A-2 solutions were combined in an eppendorf tube, mix gently with a manual pipettor, and incubate mixture for 15 minutes in the 4° C. water bath. Final concentrations in the mixture are […] NS3, 4.15 mM NS4A-2 (2485-fold molar excess NS4A-2).
After 15 minutes at 4° C., the NS3/NS4A-2 eppendorf tube was removed and place it in a room temperature water bath for 10 minutes. NS3/NS4A-2 was alliquoted at appropriate volumes and store at −80° C. (E. coli NS3 run at 2 nM in assay, aliquot at 25 μL. BV NS3 run at 3 nM in assay, aliquot at 30 μL).
Step 2.2.5. Sample compounds were dissolved to 10 mM in DMSO then diluted to 2.5 mM (1:4) in DMSO.
Step 2.2.6. The E. coli. NS3/NS4A-2 was diluted to 4 nM NS3 (1:417.5 of […] stock−18 μL 1.67 μM stock+7497 μL assay buffer). The BV NS3/NS4A-2 was diluted to 6 nM NS3 (1:278.3 of 1.67 μM stock−24 μL 1.67 μM stock+6655 μL assay buffer).
Step 2.2.7. Using the manual multichannel pipettor, and being careful not to introduce bubbles into the plate, 50 μL assay buffer were added to wells A01-H01 of a black Costar 96-well polypropylene storage plate.
Step 2.2.8. Using the manual multichannel pipettor, and being careful not to introduce bubbles into the plate, 50 μL of diluted NS3/NS4A-2 from step 2.2.6 were added to wells A02-H12 of plate in step 2.2.7.
Step 2.2.9. Using the manual multichannel pipettor, and being careful not to introduce bubbles into the plate, 25 μL of the wells in drug dilution plate in step 2.2.5 were transferred to corresponding wells in assay plate in step 2.2.8. The tips on multichannel pipettor were changed for each row of compounds transferred.
Step 2.2.10. Using the manual multichannel pipettor, and being careful not to introduce bubbles into the plate, the contents of the wells from the assay plate in step 2.2.9 were mixed by aspirating and dispensing 35 μL of the 75 μL in each well five times. The tips on the multichannel pipettor were changed for each row of wells mixed.
Step 2.2.11. The plate was covered with a polystyrene plate lid, and the plate from step 2.2.10 containing NS3 protease and sample compounds was pre-incubated 10 minutes at room temperature.
While the plate from step 2.2.11 was pre-incubating, the RETS1 substrate was diluted in a 15 mL polypropylene centrifuge tube. The RETS1 substrate was diluted to 8 μM (1:80.75 of 646 μM stock−65 μL 646 μM stock+5184 μL assay buffer).
After the plate in step 2.2.11 was done pre-incubating, and using the manual multichannel, 25 μL of substrate were added to all wells on the plate. The contents of the wells of plate were quickly mixed, as in step 2.2.10, but mixing 65 μL of the 100 μL in the wells.
The plate was read in kinetic mode on the Molecular Devices SpectraMax Gemini XS plate reader. Reader settings: Read time: 30 minutes, Interval: 36 seconds, Reads: 51, Excitation λ: 335 nm, Emission λ: 495 nm, cutoff: 475 nm, Automix: off, Calibrate: once, PMT: high, Reads/well: 6, Vmax pts: 21 or 28/51 depending on length of linearity of reaction.
IC50s were determined using a four parameter curve fit equation, and converted to Ki's using the following Km's:
where Ki=IC50/(1+[S]/Km))

Assay [2] relates to HCV sub-genomic replicon, GS4.3. Put plainly: Quantitation by ELISA of NPTII in the HCV sub-genomic replicon, GS4.3, Section C. It is filed as cell-based. An excerpt:
Quantitation by ELISA of the selectable marker protein, Neomycin phosphotransferase II (NPTII) in the HCV Sub-Genomic Replicon, GS4.3
The HCV sub-genomic replicon (1377/NS3-3′, accession No. AJ242652), stably maintained in HuH-7 hepatoma cells, was created by Lohmann et al. Science 285: 110-113 (1999). The replicon-containing cell culture, designated GS4.3, was obtained from Dr. Christoph Seeger of the Institute for Cancer Research, Fox Chase Cancer Center, Philadelphia, Pa.
GS4.3 cells were maintained at 37° C., 5% CO2, in DMEM (Gibco 11965-092) supplemented with L-glutamine 200 mM (100×) (Gibco25030-081), non-essential amino acids (NEAA)(Biowhittaker 13-114E), heat-inactivated (HI) Fetal Bovine Serum(FBS)(Hyclone SH3007.03) and 750 μg/ml geneticin (G418)(Gibco 10131-035). Cells were sub-divided 1:3 or 4 every 2-3 days.
24 h prior to the assay, GS4.3 cells were collected, counted, and plated in 96-well plates (Costar 3585) at 7500 cells/well in 100 μl standard maintenance medium (above) and incubated in the conditions above. To initiate the assay, culture medium was removed, cells were washed once with PBS (Gibco 10010-023) and 90 μl Assay Medium (DMEM, L-glutamine, NEAA, 10% HI FBS, no G418) was added. Inhibitors were made as a 10× stock in Assay Medium, (3-fold dilutions from 10 μM to […] final concentration, final DMSO concentration 1%), 10 μl were added to duplicate wells, plates were rocked to mix, and incubated as above for 72 h.
An NPTII Elisa kit was obtained from AGDIA, Inc. (Compound direct ELISA test system for Neomycin Phosphotransferase II, PSP 73000/4800). Manufacturer's instructions were followed, with some modifications. 10×PEB-1 lysis buffer was made up to include 500 μM PMSF (Sigma P7626, 50 mM stock in isopropanol). After 72 h incubation, cells were washed once with PBS and 150 μl PEB-1 with PMSF was added per well. Plates were agitated vigorously for 15 minutes, room temperature, then frozen at −70° C. Plates were thawed, lysates were mixed thoroughly, and 100 μl were applied to an NPTII Elisa plate. A standard curve was made. Lysate from DMSO-treated control cells was pooled, serially diluted with PEB-1 with PMSF, and applied to duplicate wells of the ELISA plate, in a range of initial lysate amount of 150u1-2.5 ul. In addition, 100 μl buffer alone was applied in duplicate as a blank. Plates were sealed and gently agitated at room temperature for 2 h. Following capture incubation, the plates were washed 5×300 μl with PBS-T (0.5% Tween-20, PBS-T was supplied in the ELISA kit). For detection, a 1× dilution of enzyme conjugate diluent MRS-2 (5×) was made in PBS-T, into which 1:100 dilutions of enzyme conjugates A and B were added, as per instructions. Plates were resealed, and incubated with agitation, covered, room temperature, for 2 h. The washing was then repeated and 100 μl of room temperature TMB substrate was added. After approximately 30 minutes incubation (room temperature, agitation, covered), the reaction was stopped with 50 μl 3M sulfuric acid. Plates were read at 450 nm on a Molecular Devices Versamax plate reader.
Inhibitor effect was expressed as a percentage of DMSO-treated control signal, and inhibition curves were calculated using a 4-parameter equation: y=A+((B−A)/(1+((C/x)^D))), where C is half-maximal activity or EC50.
(In general: An ELISA detects its analyte on a solid surface through an enzyme-linked reagent.)

Setting [3] is: Hepatitis C virus, GS4.3 cells, 72 h incubation, read-out: EC50.

Each structure is given as a SMILES string. Where two headings read alike, the source gives them in different places. Some results are limits rather than exact numbers.

T1 sequence (P27958 1027-1657): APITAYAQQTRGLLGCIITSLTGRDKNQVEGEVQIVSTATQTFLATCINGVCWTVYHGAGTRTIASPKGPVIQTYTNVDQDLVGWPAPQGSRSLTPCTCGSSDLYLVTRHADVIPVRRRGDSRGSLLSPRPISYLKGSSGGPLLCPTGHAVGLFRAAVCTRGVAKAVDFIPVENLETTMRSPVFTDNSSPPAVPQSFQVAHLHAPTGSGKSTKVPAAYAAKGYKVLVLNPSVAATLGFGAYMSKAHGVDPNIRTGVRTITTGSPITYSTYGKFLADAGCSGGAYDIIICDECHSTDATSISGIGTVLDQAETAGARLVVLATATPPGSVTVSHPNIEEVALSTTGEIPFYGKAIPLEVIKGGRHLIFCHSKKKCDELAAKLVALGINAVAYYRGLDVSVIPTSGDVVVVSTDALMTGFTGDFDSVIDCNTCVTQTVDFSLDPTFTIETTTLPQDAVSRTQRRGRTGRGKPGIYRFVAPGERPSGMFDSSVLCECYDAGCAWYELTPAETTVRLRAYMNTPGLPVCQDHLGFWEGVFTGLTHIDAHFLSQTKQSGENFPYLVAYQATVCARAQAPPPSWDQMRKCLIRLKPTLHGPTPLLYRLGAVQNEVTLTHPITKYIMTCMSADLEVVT

On to `CN(C)S(=O)(=O)NC(=O)[C@@]12C[C@H]1C=CCCCCC[C@H](NC(=O)OC(C)(C)C)C(=O)N1C[C@H](OC(=O)N3Cc4ccccc4C3)C[C@H]1C(=O)N2` [Compound 101, (1S,4R,6S,14S,18R)-1,3-Dihydro-isoindole-2-carboxylic acid 14-tert-butoxycarbonylamino-4-(N,N-dimethylsulfonyl-aminocarbonyl)-2,15-dioxo-3,16-diaza-tricyclo[14.3.0.0^4,6]nonadec-7-en-18-yl ester], for which the IC50 (commonly the concentration at which inhibition is half-maximal) in assay [1] (read-out: NS3-NS4 IC50) is under 100 nM. Also, the EC50 (usually the concentration at which the effect is half-maximal) in assay [2] (GS4.3 cells, 72 h incubation, read-out: EC50) is under 100 nM.

Molecule `CC(C)(C)OC(=O)N[C@H]1CCCCC/C=C\[C@@H]2C[C@@]2(C(=O)NS(=O)(=O)N2CCN(C(=O)OCC[Si](C)(C)C)CC2)NC(=O)[C@@H]2C[C@@H](OC(=O)N3Cc4ccccc4C3)CN2C1=O` [Compound 119, (1S,4R,6S,14S,18R)-1,3-Dihydro-isoindole-2-carboxylic acid 14-tert-butoxycarbonylamino-4-(4-(2-trimethylsilylethoxycarbonyl)piperazine-1-sulfonyl-aminocarbonyl)-2,15-dioxo-3,16-diaza-tricyclo[14.3.0.0^4,6]nonadec-7-en-18-yl ester] yielded an IC50 in assay [1] of under 100 nM. In assay [2] (Hepatitis C virus, 72 h), this molecule came in with an EC50 of under 100 nM.

Turning to `CC(C)(C)OC(=O)N[C@H]1CCCCC/C=C\[C@@H]2C[C@@]2(C(=O)NS(=O)(=O)N2CCCC2)NC(=O)[C@@H]2C[C@@H](OC(=O)N3Cc4ccc(Cl)cc4C3)CN2C1=O` [Compound 115, (1S,4R,6S,14S,18R)-5-Chloro-1,3-Dihydro-isoindole-2-carboxylic acid 14-tert-butoxycarbonylamino-4-(pyrrolidino-sulfonyl-aminocarbonyl)-2,15-dioxo-3,16-diaza-tricyclo[14.3.0.0^4,6]nonadec-7-en-18-yl ester], the IC50 in assay [1] (read-out: NS3-NS4 IC50) is under 100 nM. Also, in assay [2] (setting [3]), the EC50 is under 100 nM.

As to `CC(C)(C)OC(=O)N[C@H]1CCCCC/C=C\[C@@H]2C[C@@]2(C(=O)NS(=O)(=O)N2CCOCC2)NC(=O)[C@@H]2C[C@@H](OC(=O)N3Cc4ccc(Cl)cc4C3)CN2C1=O` [Compound 116, (1S,4R,6S,14S,18R)-5-Chloro-1,3-Dihydro-isoindole-2-carboxylic acid 14-tert-butoxycarbonylamino-4-(morpholino-sulfonyl-aminocarbonyl)-2,15-dioxo-3,16-diaza-tricyclo[14.3.0.0^4,6]nonadec-7-en-18-yl ester], the IC50 in assay [1] (read-out: NS3-NS4 IC50) was under 100 nM. Further, the EC50 in assay [2] (setting [3]) was under 1000 nM.

As for `CN1CCC(N(C2CC2)S(=O)(=O)NC(=O)[C@@]23C[C@H]2/C=C\CCCCC[C@H](NC(=O)OC(C)(C)C)C(=O)N2C[C@H](OC(=O)N4Cc5ccccc5C4)C[C@H]2C(=O)N3)CC1` [Compound 124, (1S,4R,6S,14S,18R)-1,3-Dihydro-isoindole-2-carboxylic acid 14-tert-butoxycarbonylamino-4-(cyclopropyl(1-methylpiperidin-4-yl)aminosulfonyl-aminocarbonyl)-2,15-dioxo-3,16-diaza-tricyclo[14.3.0.0^4,6]nonadec-7-en-18-yl ester], in assay [1] (read-out: NS3-NS4 IC50), the IC50 was under 1000 nM. For the same molecule, the EC50 in assay [2] (setting [3]) is under 100 nM.

In the case of `CC(C)(C)OC(=O)N[C@H]1CCCCC/C=C\[C@@H]2C[C@@]2(C(=O)NS(=O)(=O)NC2CC2)NC(=O)[C@@H]2C[C@@H](OC(=O)N3CCc4ccccc4C3CN3CCCCC3)CN2C1=O` (stereo partly shown) [Compound 108], in assay [1] (read-out: NS3-NS4 IC50), the IC50 is under 1000 nM. Moreover, in assay [2] (setting [3]), the EC50 is under 100 nM.

Consider `CC(C)(C)OC(=O)N[C@H]1CCCCC/C=C\[C@@H]2C[C@@]2(C(=O)NS(=O)(=O)N2CCOCC2)NC(=O)[C@@H]2C[C@@H](OC(=O)N3Cc4ccccc4C3)CN2C1=O` [Compound 104, (1S,4R,6S,14S,18R)-1,3-Dihydro-isoindole-2-carboxylic acid 14-tert-butoxycarbonylamino-4-(morpholinosulfonyl-aminocarbonyl)-2,15-dioxo-3,16-diaza-tricyclo[14.3.0.0^4,6]nonadec-7-en-18-yl ester], for which, in assay [1] (read-out: NS3-NS4 IC50), the IC50 was under 100 nM. Moreover, the EC50 in assay [2] (setting [3]) was under 100 nM.

For the molecule `CC(C)(C)OC(=O)N[C@H]1CCCCC/C=C\[C@@H]2C[C@@]2(C(=O)NS(=O)(=O)N2CCCC2)NC(=O)[C@@H]2C[C@@H](OC(=O)N3CCc4ccccc4C3CN3CCCCC3)CN2C1=O` (stereo partly drawn) [Compound 109, (1S,4R,6S,14S,18R)-1-Piperidin-1-ylmethyl-3,4-dihydro-1H-isoquinoline-2-carboxylic acid 14-tert-butoxycarbonylamino-2,15-dioxo-4-(pyrrolidino-sulfonylaminocarbonyl)-3,16-diaza-tricyclo[14.3.0.0^4,6]nonadec-7-en-18-yl ester], the IC50 in assay [1] (read-out: NS3-NS4 IC50) was under 100 nM. For the same molecule, the EC50 in assay [2] (setting [3]) was under 1000 nM.
